Measured values taken from US20080292588A1, “1-METHYL-BENZO[1,2,4]THIADIAZINE 1-OXIDE DERIVATIVES” (Anadys Pharmaceuticals, Inc., priority 2007, published 2008).
Like-named read-outs stand apart in the source and are kept apart here.

Target: HCV NS5B polymerase (Hepatitis C virus genotype 1b, UniProt Q9WMX2)
Assay: HCV NS5B polymerase inhibition assay (FlashPlate, [α-33P]GTP incorporation)
Assay type: biochemical
Procedure: Compounds were tested for HCV NS5B polymerase inhibition. Assays were performed in a 96-well streptavidin-coated FlashPlate using 20 nM enzyme, 1.4 μCi of [(α-^33P]GTP, 0.63 μM GTP, and 250 nM 5′biotinylated oligo (rG13)/poly rC in 20 mM Tris-HCl, pH 7.5, 5 mM MgCl2, 5 mM dithiothreitol, 0.1 g/L bovine serum albumin, and 100 U/ml RNAse inhibitor. The reaction was stopped by aspiration after 75 min at 28° C. and the plate was washed several times. After washing and drying the plate, incorporated radioactivity was counted using a Microbeta scintillation counter. IC50 values were calculated relative to the uninhibited control and inhibition data were fitted to a 4-parameter IC50 equation. For very potent inhibitors, the data were fitted to a tight binding quadratic equation to obtain IC50 values.

[1] = 20 nM enzyme, 75 min at 28° C., read-out: NS5B IC50
[2] = read-out: NS5B polymerase inhibition IC50

Chain of HCV NS5B polymerase (Q9WMX2 2420-3010): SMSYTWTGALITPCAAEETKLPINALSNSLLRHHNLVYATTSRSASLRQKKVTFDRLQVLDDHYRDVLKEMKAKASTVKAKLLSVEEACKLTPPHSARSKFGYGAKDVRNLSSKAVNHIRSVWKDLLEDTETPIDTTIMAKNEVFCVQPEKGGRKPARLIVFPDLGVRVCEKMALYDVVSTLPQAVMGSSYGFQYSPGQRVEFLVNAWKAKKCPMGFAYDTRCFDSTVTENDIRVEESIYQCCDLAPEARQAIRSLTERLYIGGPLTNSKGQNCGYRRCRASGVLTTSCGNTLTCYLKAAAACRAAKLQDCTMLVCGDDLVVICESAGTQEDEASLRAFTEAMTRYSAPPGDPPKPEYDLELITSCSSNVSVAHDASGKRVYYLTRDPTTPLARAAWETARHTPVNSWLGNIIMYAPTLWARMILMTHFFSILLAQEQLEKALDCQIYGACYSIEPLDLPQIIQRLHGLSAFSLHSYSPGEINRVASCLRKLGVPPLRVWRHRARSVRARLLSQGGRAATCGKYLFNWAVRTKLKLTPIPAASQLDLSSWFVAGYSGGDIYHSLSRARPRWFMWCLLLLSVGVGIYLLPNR

SMILES | IC50 [1] | IC50 [2]
CS(=O)(=O)Nc1ccc2c(c1)S(C)(=O)=NC(C1=C(O)[C@H]3[C@H]([C@@H]4CC[C@H]3O4)N(Cc3ccc(F)cc3)C1=O)=N2 (mixture of isomers) [Compound 63, N-{3-[3-(4-fluoro-benzyl)-6-hydroxy-4-oxo-11-oxa-3-aza-tricyclo[6.2.1.0^2,7]undec-5-en-5-yl]-1-methyl-1-oxo-1λ^6-benzo[1,2,4]thiadiazin-7-yl}-methanesulfonamide] | < 1 µM | < 1 µM
CC[C@H]1CC(O)=C(C2=Nc3ccc(NS(C)(=O)=O)cc3S(C)(=O)=N2)C(=O)N1Cc1ccc(F)cc1 (mixture of isomers) [Compound 75, N-{3-[6-(S)-Ethyl-1-(4-fluoro-benzyl)-4-hydroxy-2-oxo-1,2,5,6-tetrahydro-pyridin-3-yl]-1-methyl-1-oxo-1λ^6-benzo[1,2,4]thiadiazin-7-yl}-methanesulfonamide] | < 1 µM | < 1 µM
CC(C)(C)CCn1nc(-c2cccs2)c(O)c(C2=Nc3ccc(NS(C)(=O)=O)cc3S(C)(=O)=N2)c1=O (racemic) [Compound 22, N-{3-[2-(3,3-dimethyl-butyl)-5-hydroxy-3-oxo-6-thiophen-2-yl-2,3-dihydro-pyridazin-4-yl]-1-methyl-1-oxo-1l6-benzo[1,2,4]thiadiazin-7-yl}-methanesulfonamide] | < 1 µM | < 1 µM
CC(C)(C)CC[C@@]1(C)C(=O)C(C2=Nc3ccc(NS(C)(=O)=O)cc3S(C)(=O)=N2)=C(O)c2ccccc21 (mixture of isomers) [Compound 36, N-{3-[4-(3,3-dimethyl-butyl)-1-hydroxy-4-methyl-3-oxo-3,4-dihydro-naphthalen-2-yl]-1-methyl-1-oxo-1λ^6-benzo[1,2,4]thiadiazin-7-yl}-methanesulfonamide] | < 1 µM | < 1 µM
CC(C)(C)[C@H]1C(O)=C(C2=Nc3ccc(NS(C)(=O)=O)cc3S(C)(=O)=N2)C(=O)N1Cc1ccc(F)c(Cl)c1 (stereo in doubt) [Compound 32, N-{3-[5-tert-butyl-1-(3-chloro-4-fluoro-benzyl)-4-hydroxy-2-oxo-2,5-dihydro-1H-pyrrol-3-yl]-1-methyl-1-oxo-1λ^6-benzo[1,2,4]thiadiazin-7-yl}-methanesulfonamide] | < 1 µM | < 1 µM
CS1(=O)=NC(C2=C(O)[C@@H]3CCC[C@@H]3N(Cc3ccc(F)cc3)C2=O)=Nc2ccccc21 (stereo in doubt) [Compound 68, 1-(4-fluoro-benzyl)-4-hydroxy-3-(1-methyl-1-oxo-1λ^6-benzo[1,2,4]thiadiazin-3-yl)-1,4a,5,6,7,7a-hexahydro-[1]pyrindin-2-one] | 1 to 100 µM | < 100 µM
CC(C)(C)CCn1nc(-c2cccs2)c(O)c(C2=Nc3ccc(NS(C)(=O)=O)cc3[S@@](C)(=O)=N2)c1=O [Compound 23] | < 1 µM | < 1 µM
CC(C)(C)CCn1nc(-c2cccs2)c(O)c(C2=Nc3ccc(NS(C)(=O)=O)cc3[S@](C)(=O)=N2)c1=O [Compound 24] | 1 to 100 µM | < 100 µM
CC(C)(C)CCn1nc(N2CCCC2)c(O)c(C2=Nc3ccc(NS(C)(=O)=O)cc3S(C)(=O)=N2)c1=O (stereo not drawn) [Compound 28, N-{3-[2-(3,3-dimethyl-butyl)-5-hydroxy-3-oxo-6-pyrrolidin-1-yl-2,3-dihydro-pyridazin-4-yl]-1-methyl-1-oxo-1λ^6-benzo[1,2,4]thiadiazin-7-yl}-methanesulfonamide] | < 1 µM | < 1 µM
CC(C)(C)CC[C@@]1(C)C(=O)C(C2=Nc3ccc(NS(C)(=O)=O)cc3[S@@](C)(=O)=N2)=C(O)c2ccccc21 [Compound 37] | < 1 µM | < 1 µM
CC(C)(C)CC[C@@]1(C)C(=O)C(C2=Nc3ccc(NS(C)(=O)=O)cc3[S@](C)(=O)=N2)=C(O)c2ccccc21 [Compound 38] | < 1 µM | < 1 µM
CS(=O)(=O)Nc1ccc2c(c1)S(C)(=O)=NC(C1=C(O)[C@@H]3[C@H]4CC[C@H](C4)[C@@H]3N(Cc3ccc(F)cc3)C1=O)=N2 (stereo partly drawn) [Compound 54, N-{3-[3-(4-fluoro-benzyl)-6-hydroxy-4-oxo-3-aza-tricyclo[6.2.1.0^2,7]undec-5-en-5-yl]-1-methyl-1-oxo-1λ^6-benzo[1,2,4]thiadiazin-7-yl}-methanesulfonamide] | < 1 µM | < 1 µM
